Experimental data published in patent US8859535B2, “Hydroxy substituted isoquinolinone derivatives” (Novartis AG, priority 2011, dated 2014).

What follows are compounds tested against T1, human MDM2 protein (amino acids 2-188) (Homo sapiens, UniProt Q00987) (assay: p53-MDM2 TR-FRET assay, modified (p53-MDM2 Assay 2)). Details: 0.1 nM MDM2, 0.1 nM Europium labeled streptavidin; read-out: IC50 (nM) of p53-Hdm2 inhibition (TR-FRET) Assay 2.
T1 construct: human MDM2 protein (amino acids 2-188); made in house
T1 sequence (Q00987 2-188): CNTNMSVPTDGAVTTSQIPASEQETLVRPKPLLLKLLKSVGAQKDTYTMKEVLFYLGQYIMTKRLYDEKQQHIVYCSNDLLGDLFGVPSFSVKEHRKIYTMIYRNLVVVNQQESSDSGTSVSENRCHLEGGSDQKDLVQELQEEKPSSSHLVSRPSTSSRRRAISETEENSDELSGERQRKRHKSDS
Type: binding
Description: Time Resolved Fluorescence Energy Transfer (TR-FRET) Assay
The inhibition of p53-MDM2 and p53-MDM4 interactions is measured by time resolved fluorescence energy transfer (TR-FRET). Fluorescence energy transfer (or Foerster resonance energy transfer) describes an energy transfer between donor and acceptor fluorescent molecules. For this assay, human MDM2 protein (amino acids 2-188) and human MDM4 protein (amino acids 2-185), tagged with a C-terminal biotin moiety, are used in combination with a Europium labeled streptavidin (Perkin Elmer, Inc., Waltham, Mass., USA) serving as the donor fluorophore. The p53 derived, Cy5 labeled peptide Cy5-TFSDLWKLL (p53 aa18-26) is the energy acceptor. Upon excitation of the donor molecule at 340 nm, binding interaction between MDM2 or MDM4 and the p53 peptide induces energy transfer and enhanced response at the acceptor emission wavelength at 665 nm. Disruption of the formation of the p53-MDM2 or p53-MDM4 complex due to an inhibitor molecule binding to the p53 binding site of MDM2 or MDM4 results in increased donor emission at 620 nm. The ratiometric FRET assay readout is calculated from the raw data of the two distinct fluorescence signals measured in time resolved mode (fluorescence 665 nm/fluorescence 620 nm×1000).
After addition of 1.25 nM MDM2-biotinylated or 2.5 nM MDM4-biotinylated (internal preparations), and 0.625 nM Europium labeled streptavidin (Perkin Elmer), the solution is pre-incubated for 15 minutes at room temperature, then 10 nM Cy5-p53 peptide (internal preparation) is added before an incubation at room temperature for 15 minutes prior to reading the plate. For measurement of samples, a Victor II microplate reader (Perkin Elmer) is used with the following settings: Excitation 340 nm, Emission Donor 620 nm and Emission Acceptor 665 nm. IC50 values are calculated by curve fitting using XLfit. If not specified, reagents are purchased from Sigma-Aldrich Chemie GmBH, Buchs, Switzerland.
This assay was used to evaluate compounds displaying inhibition of p53-MDM2 interaction and p53-MDM4 interaction at IC50s of 0.005 to 50 μM (p53-MDM2 Assay 1 and p53-MDM4 Assay 1, respectively). For selected compounds displaying IC50s between […] on MDM2, a slightly modified assay is used with the following adaptations: 0.1 nM MDM2, 0.1 nM Europium labeled streptavidin and Tecan genios Pro is used as a microplate reader for the fluorescence measurements (p53-MDM2 Assay 2).
For CNC(=O)N1C2CCCC1CC(C(C)(O)c1ccc(N3C(=O)Cc4cc(OC)c(OC(C)C)cc4[C@@H]3c3ccc(Cl)cc3)cc1)C2 (stereo partly drawn) [Example 119, 3-(1-{4-[(S)-1-(4-Chloro-phenyl)-7-isopropoxy-6-methoxy-3-oxo-3,4-dihydro-1H-isoquinolin-2-yl]-phenyl}-1-hydroxy-ethyl)-9-aza-bicyclo[3.3.1]nonane-9-carboxylic acid methylamide], the IC50 was 1.47 nM. In the case of COc1cc2c(cc1OC(C)C)[C@H](c1ccc(Cl)cc1)N(c1ccc(C(C)(O)C3CC4CCCC(C3)N4C3COC3)cc1)C(=O)C2 (stereo partly drawn) [Example 120, (S)-1-(4-Chloro-phenyl)-2-{4-[1-hydroxy-1-(9-oxetan-3-yl-9-aza-bicyclo[3.3.1]non-3-yl)-ethyl]-phenyl}-7-isopropoxy-6-methoxy-1,4-dihydro-2H-isoquinolin-3-one], the IC50 is reported as 4.67 nM. COc1cc2c(cc1OC(C)C)[C@H](c1ccc(Cl)cc1)N(c1ccc(C(C)(O)C3CC4CCCC(C3)N4C(=O)COC(C)=O)cc1)C(=O)C2 (stereo partly drawn) [Example 121, Acetic acid 2-[3-(1-{4-[(S)-1-(4-chloro-phenyl)-7-isopropoxy-6-methoxy-3-oxo-3,4-dihydro-1H-isoquinolin-2-yl]-phenyl}-1-hydroxy-ethyl)-9-aza-bicyclo[3.3.1]non-9-yl]-2-oxo-ethyl ester] showed an IC50 of 3.44 nM. For CCN1C2CCCC1CC(C(C)(O)c1ccc(N3C(=O)Cc4cc(OC)c(OC(C)C)cc4[C@@H]3c3ccc(Cl)cc3)cc1)C2 (stereo partly drawn) [Example 122, (S)-1-(4-Chloro-phenyl)-2-{4-[1-(9-ethyl-9-aza-bicyclo[3.3.1]non-3-yl)-1-hydroxy-ethyl]-phenyl}-7-isopropoxy-6-methoxy-1,4-dihydro-2H-isoquinolin-3-one], the IC50 was 2.31 nM. In the case of COc1cc2c(cc1OC(C)C)[C@H](c1ccc(Cl)cc1)N(c1ccc(C(C)(O)C3CC4CCCC(C3)N4C(=O)CO)cc1)C(=O)C2 (stereo partly drawn) [Example 123, (S)-1-(4-Chloro-phenyl)-2-(4-{1-hydroxy-1-[9-(2-hydroxy-acetyl)-9-aza-bicyclo[3.3.1]non-3-yl]-ethyl}-phenyl)-7-isopropoxy-6-methoxy-1,4-dihydro-2H-isoquinolin-3-one], the IC50 is reported as 4.2 nM. COc1cc2c(cc1OC(C)C)[C@H](c1ccc(Cl)cc1)N(c1ccc(C(C)(O)C3CCN(C[C@@H](O)CO)CC3)cc1)C(=O)C2 (stereo partly drawn) [Example 130, (S)-1-(4-Chloro-phenyl)-2-(4-{1-[1-((R)-2,3-dihydroxy-propyl)-piperidin-4-yl]-1-hydroxy-ethyl}-phenyl)-7-isopropoxy-6-methoxy-1,4-dihydro-2H-isoquinolin-3-one] was tested, and the IC50 was 2.08 nM. For [2H]C([2H])([2H])Oc1cc2c(cc1OC(C)C)[C@H](c1ccc(Cl)cc1)N(c1ccc(C(C)(O)C3CCN(C=O)CC3)cc1)C(=O)C2 (stereo partly drawn) [Example 151, 4-(1-{4-[(S)-1-(4-Chloro-phenyl)-7-isopropoxy-6-d^3-methoxy-3-oxo-3,4-dihydro-1H-isoquinolin-2-yl]-phenyl}-1-hydroxy-ethyl)-piperidine-1-carbaldehyde], the IC50 was 2.09 nM. COc1cc2c(cc1OC(C)C)[C@H](c1ccc(Cl)cc1)N(c1ccc(C(C)(O)C3C4CNCC3COC4)cc1)C(=O)C2 (stereo partly drawn) [Example 156, (S)-1-(4-Chloro-phenyl)-2-{4-[1-hydroxy-1-(3-oxa-7-aza-bicyclo[3.3.1]non-9-yl)-ethyl]-phenyl}-7-isopropoxy-6-methoxy-1,4-dihydro-2H-isoquinolin-3-one] showed an IC50 of 12.6 nM. COc1cc2c(cc1OC(C)C)[C@H](c1ccc(Cl)cc1)N(c1ccc(C(C)(O)C3C4COCC3CN(C=O)C4)cc1)C(=O)C2 (stereo partly drawn) [Example 157, 9-(1-{4-[(S)-1-(4-Chloro-phenyl)-7-isopropoxy-6-methoxy-3-oxo-3,4-dihydro-1H-isoquinolin-2-yl]-phenyl}-1-hydroxy-ethyl)-3-oxa-7-aza-bicyclo[3.3.1]nonane-7-carbaldehyde] showed an IC50 of 4.89 nM. CC(C)Oc1cc2c(cc1OC(F)F)CC(=O)N(c1ccc(C(C)(O)C3CCOCC3)cc1)C2c1ccc(Cl)cc1 (stereo not drawn) [Example 165, 1-(4-Chloro-phenyl)-6-difluoromethoxy-2-{4-[1-hydroxy-1-(tetrahydro-pyran-4-yl)-ethyl]-phenyl}-7-isopropoxy-1,4-dihydro-2H-isoquinolin-3-one] gave an IC50 of 12 nM. COc1cc2c(cc1OC(C)C)[C@H](c1ccc(Cl)cc1)N(c1ccc([C@](C)(O)C3CC4CCCC(C3)S4(=O)=O)cc1)C(=O)C2 (stereo partly drawn) [Example 176, (S)-1-(4-Chloro-phenyl)-2-{4-[(R)-1-(9,9-dioxo-9-thia-bicyclo[3.3.1]non-3-yl)-1-hydroxy-ethyl]-phenyl}-7-isopropoxy-6-methoxy-1,4-dihydro-2H-isoquinolin-3-one] gave an IC50 of 98 nM. With COc1cc2c(cc1OC(C)C)[C@H](c1ccc(Cl)cc1)N(c1ccc([C@@](C)(O)C3CC4CCCC(C3)S4(=O)=O)cc1)C(=O)C2 (stereo partly drawn) [Example 177, (S)-1-(4-Chloro-phenyl)-2-{4-[(S)-1-(9,9-dioxo-9-thia-bicyclo[3.3.1]non-3-yl)-1-hydroxy-ethyl]-phenyl}-7-isopropoxy-6-methoxy-1,4-dihydro-2H-isoquinolin-3-one] the IC50 was 1.15 nM. Work on COc1cc2c(cc1OC(C)C)[C@H](c1ccc(Cl)cc1)N(c1ccc(C(C)(O)C34CCC(CC3)OC4)cc1)C(=O)C2 (stereo partly drawn) [Example 178, (S)-1-(4-Chloro-phenyl)-2-{4-[1-hydroxy-1-(2-oxa-bicyclo[2.2.2]oct-4-yl)-ethyl]-phenyl}-7-isopropoxy-6-methoxy-1,4-dihydro-2H-isoquinolin-3-one] yielded an IC50 of 1.59 nM. With COc1cc2c(cc1OC(C)C)[C@H](c1ccc(Cl)cc1)N(c1ccc(C(C)(O)[C@H]3CCCN(C(=O)OC(C)(C)C)C3)cc1)C(=O)C2 (stereo partly drawn) [Example 179, (S)-3-(1-{4-[(S)-1-(4-Chloro-phenyl)-7-isopropoxy-6-methoxy-3-oxo-3,4-dihydro-1H-isoquinolin-2-yl]-phenyl}-1-hydroxy-ethyl)-piperidine-1-carboxylic acid tert-butyl ester] the IC50 was 1.28 nM. Work on COc1cc2c(cc1OC(C)C)[C@H](c1ccc(Cl)cc1)N(c1ccc(C(C)(O)[C@H]3CCCNC3)cc1)C(=O)C2 (stereo partly drawn) [Example 180, (S)-1-(4-Chloro-phenyl)-2-[4-((S)-1-hydroxy-1-piperidin-3-yl-ethyl)-phenyl]-7-isopropoxy-6-methoxy-1,4-dihydro-2H-isoquinolin-3-one] yielded an IC50 of 2.25 nM. In the case of COc1cc2c(cc1OC(C)C)[C@H](c1ccc(Cl)cc1)N(c1ccc(C(C)(O)[C@H]3CCCN(C)C3)cc1)C(=O)C2 (stereo partly drawn) [Example 181, (S)-1-(4-Chloro-phenyl)-2-{4-[1-hydroxy-1-((S)-1-methyl-piperidin-3-yl)-ethyl]-phenyl}-7-isopropoxy-6-methoxy-1,4-dihydro-2H-isoquinolin-3-one], the IC50 is reported as 5.13 nM. In the case of COc1cc2c(cc1OC(C)C)[C@H](c1ccc(Cl)cc1)N(c1ccc(C(C)(O)[C@H]3CCCN(C=O)C3)cc1)C(=O)C2 (stereo partly drawn) [Example 182, (S)-3-(1-{4-[(S)-1-(4-Chloro-phenyl)-7-isopropoxy-6-methoxy-3-oxo-3,4-dihydro-1H-isoquinolin-2-yl]-phenyl}-1-hydroxy-ethyl)-piperidine-1-carbaldehyde], the IC50 is reported as 0.329 nM. Compound COc1cc2c(cc1OC(C)C)[C@H](c1ccc(Cl)cc1)N(c1ccc(C(C)(O)[C@H]3CCCN(C4COC4)C3)cc1)C(=O)C2 (stereo partly drawn) [Example 183, (S)-1-(4-Chloro-phenyl)-2-{4-[1-hydroxy-1-((S)-1-oxetan-3-yl-piperidin-3-yl)-ethyl]-phenyl}-7-isopropoxy-6-methoxy-1,4-dihydro-2H-isoquinolin-3-one] has an IC50 of 8.78 nM.
